Read-outs that look alike come from different tables or passages of the source.

This passage reports IC50 and GI50 results from US10065990B2, “Cyclic peptide compound, and preparation method, pharmaceutical composition and use thereof” (HANGZHOU GUANYU BIO-MEDICAL CO., LTD, priority 2013, dated 2018).

The target of one assay is T1, HDAC8 (Homo sapiens, UniProt Q9BY41).
T1 sequence (Q9BY41 1-377): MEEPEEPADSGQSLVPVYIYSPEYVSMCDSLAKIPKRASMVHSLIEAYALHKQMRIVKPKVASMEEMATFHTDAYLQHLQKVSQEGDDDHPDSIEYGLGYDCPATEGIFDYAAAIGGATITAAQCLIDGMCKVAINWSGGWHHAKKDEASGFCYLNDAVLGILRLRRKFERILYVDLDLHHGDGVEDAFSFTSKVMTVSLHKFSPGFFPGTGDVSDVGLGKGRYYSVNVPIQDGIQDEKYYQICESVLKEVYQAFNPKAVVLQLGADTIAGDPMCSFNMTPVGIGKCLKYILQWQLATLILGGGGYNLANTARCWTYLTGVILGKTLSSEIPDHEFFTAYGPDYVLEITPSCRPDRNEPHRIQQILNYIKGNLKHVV
The assay can be described thus: HDAC biochemical activity measurement (fluorescent substrate deacetylation). Particulars: 37° C. 30 minutes.

In assay [1] the test system is H1975 (non-small cell lung adenocarcinoma). Put plainly: MTT cancer cell growth inhibition. In kind it is cell-based. The settings on record: Homo sapiens, NCI-H1975, 72 h, MTT, 72 hours incubation, H1975 cells; read-out: GI50 H1975. Summed up: (§1)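 Read-out was formazan absorbance at 570 nm after a 4 h MTT step and DMSO solubilisation, converted to cell viability and fitted for GI50. Beforehand, cells (1500/well, overnight attachment) were treated with compound at 10^−5 to 10^−10 M for 72 h at 37° C.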

In assay [2] the test system is HCC827 (human non-small cell lung cancer cells). Put plainly: MTT cancer cell growth inhibition. Format: cell-based. Particulars: Homo sapiens, HCC827, 72 h, MTT, 72 hours incubation, HCC827 cells; read-out: GI50 HCC827. The method, boiled down: as §1
Assay [3] has as its system K562 (human leukemia cells). The assay can be described thus: MTT cancer cell growth inhibition. In kind it is cell-based. The settings on record: Homo sapiens, K562, 72 h, MTT, 72 hours incubation, K562 cells; read-out: GI50 K562. The method, boiled down:
as §1

Assay [4] has as its system BGC-823 (human gastric cancer cells). Put plainly: MTT cancer cell growth inhibition. Format: cell-based. Particulars: Homo sapiens, BGC-823, 72 h, MTT, 72 hours incubation; read-out: GI50 BG. The method, boiled down:
as §1

The subject of assay [5] is HT1080 (human fibrosarcoma cells). Put plainly: MTT cancer cell growth inhibition. In kind it is cell-based. The settings on record: Homo sapiens, HT-1080, 72 h, MTT, 72 hours incubation; read-out: GI50 HT1. The method, boiled down: as §1
Assay [6] concerns Hela (human cervical cancer cells). The assay can be described thus: MTT cancer cell growth inhibition. In kind it is cell-based. The settings on record: Homo sapiens, HeLa, 72 h, MTT, 72 hours incubation; read-out: GI50 Hela. Summed up:
as §1

In assay [7] the test system is Bel-7402 (human hepatoma cells). The assay can be described thus: MTT cancer cell growth inhibition. Format: cell-based. Particulars: Homo sapiens, Bel-7402, 72 h, MTT, 72 hours incubation, Bel-7402 cells; read-out: GI50 Bel-7402. The method, boiled down:
as §1

Assay [8] deals with KBM-5 (human chronic myelogenous leukemia). The assay can be described thus: MTT cancer cell growth inhibition. Format: cell-based. The settings on record: Homo sapiens, KBM5, 72 h, MTT, 72 hours incubation, KBM-5 cells; read-out: GI50 KBM-5. The method, boiled down: as §1
Assay [9] deals with N-87 (human gastric cancer cells). The assay can be described thus: MTT cancer cell growth inhibition. Format: cell-based. The settings on record: Homo sapiens, 72 h, MTT, 72 hours incubation, N-87 cells; read-out: GI50 N-87. Summed up:
as §1

A further assay addresses HDAC3 (Homo sapiens, UniProt O15379). The assay can be described thus: HDAC biochemical activity measurement (fluorescent substrate deacetylation).
The subject of assay [10] is DU145 (human prostate cancer cells). The assay can be described thus: MTT cancer cell growth inhibition. Format: cell-based. Particulars: Homo sapiens, DU-145, 72 h, MTT, 72 hours incubation; read-out: GI50 Du1. The method, boiled down: as §1
For assay [11], the system named is U937 (human leukemia cells). Put plainly: MTT cancer cell growth inhibition. Format: cell-based. The settings on record: Homo sapiens, U-937, 72 h, MTT, 72 hours incubation; read-out: GI50 U93. The method, boiled down: as §1
Where [12] appears, read: read-out: IC50 HDAC3, HDAC3, 37° C. 30 minutes.

Chain of HDAC3 (O15379 whole entry, species assumed): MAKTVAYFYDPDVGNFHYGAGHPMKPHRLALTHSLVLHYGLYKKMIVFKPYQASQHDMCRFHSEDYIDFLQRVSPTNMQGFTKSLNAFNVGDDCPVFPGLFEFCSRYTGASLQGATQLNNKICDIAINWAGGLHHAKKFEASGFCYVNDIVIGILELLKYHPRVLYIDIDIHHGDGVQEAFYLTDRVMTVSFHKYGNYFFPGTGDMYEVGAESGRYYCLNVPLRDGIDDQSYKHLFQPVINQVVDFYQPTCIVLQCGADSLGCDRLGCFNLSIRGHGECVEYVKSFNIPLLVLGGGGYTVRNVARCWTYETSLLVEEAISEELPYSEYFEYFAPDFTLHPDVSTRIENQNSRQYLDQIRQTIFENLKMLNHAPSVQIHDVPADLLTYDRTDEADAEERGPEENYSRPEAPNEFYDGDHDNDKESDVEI
Chain of HDAC3 (Q9Y618 395-489 partner limits assumed, species assumed): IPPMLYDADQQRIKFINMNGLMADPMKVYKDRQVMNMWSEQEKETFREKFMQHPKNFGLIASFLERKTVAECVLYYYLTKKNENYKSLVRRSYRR
Procedure for HDAC3: The chemical activity of the compound is determined according to the degree of deacetylation inhibition of the HDAC enzyme. This experiment measured the degree of deacetylation related to tumor proliferation and metastasis of HDAC1, HDAC2, HDAC3, HDAC8, HDAC11 five subtypes HDAC enzymes. After the substrate containing an acetylated lysine side chain and HDAC enzyme are labeled with a fluorescent label, the fluorescent substrate is de acetyl. The fluorescent labeled substrate is cleaved by the enzyme, and the fluorescent substance is released, which generates 460 nm emission light under the excitation of 360 nm light.
HDAC substrate was diluted with reaction buffer to 200M (reaction concentration of 20M), the HDAC enzyme was diluted to the appropriate concentration, then added different concentrations of the test compounds and acted at 37° C. 30 minutes, and then added the same volume of 2-times concentration substrate developing solution (developer), incubated at room temperature for 15 minutes.

Take `C/C=C1\NC(=O)c2cccc(n2)CNC(=O)C[C@@H](/C=C/CCSC(C)=O)OC(=O)[C@H](C)NC1=O` [Compound 12]: the values for the IC50 at HDAC8 and on HDAC3 (setting [12]) were 38 nM and 52 nM, respectively. Besides, the GI50 (usually the concentration at which growth is held to half of that of the control) in assay [1] turned out to be 41 nM; in assay [2], 37 nM; in assay [3], 24 nM; in assay [4], 90 nM; in [5] it was 60 nM; in assay [6], 50 nM. Further, the GI50 in assay [7] was 72 nM; in assay [8] it was 72 nM; in assay [9], 28 nM.

For the compound `C/C=C1\NC(=O)c2cc(F)cc(n2)CNC(=O)C[C@@H](/C=C/CCSC(=O)CCC)OC(=O)[C@H](C(C)C)NC1=O` [Compound 43], the IC50 (as a rule, the concentration that inhibits the measured activity by half) came out at 43 nM at HDAC8 and 46 nM on HDAC3 (setting [12]). In addition, the GI50 in assay [1] was found to be 62 nM; in assay [3] it was 52 nM; in assay [4], 30 nM; in [5], 70 nM; in assay [10], 50 nM; in [6], 80 nM. Further, the GI50 in assay [7] amounted to 73 nM; in assay [11], 60 nM; in [8] it was 81 nM; in assay [9], 38 nM.

With `C=C1NC(=O)c2cccc(n2)CNC(=O)C[C@@H](/C=C/CCSC(C)=O)OC(=O)[C@H](C(C)C)NC1=O` [Compound 19], the 50% inhibitory concentration (IC50) on HDAC8 stood at 69 nM; at HDAC3 (setting [12]) it was 39 nM. Moreover, the GI50 is 24 nM in [1]; 48 nM in [2]; 26 nM in [3]; 90 nM in [4]; 70 nM in assay [5]; 60 nM in assay [6]. Further, the GI50 in assay [7] turned out to be 97 nM; in [8] it was 53 nM; in assay [9], 51 nM.

In the case of `C/C=C1\NC(=O)c2cccc(n2)CCNC(=O)C[C@@H](/C=C/CCSC(C)=O)OC(=O)[C@H](C(C)C)NC1=O` [Example 26], the IC50 against HDAC8 was 64 nM; on HDAC3, 46 nM. Further, the GI50 in [1] was 31 nM; in assay [2], 55 nM; in assay [3] it was 17 nM; in [4], 5400 nM; in assay [5], 18000 nM; in assay [10] it was 11700 nM. The GI50 in assay [6] turned out to be 37000 nM; in [7], 97 nM; in [11], 9500 nM; in [9], 39 nM.

Regarding `C/C=C1\NC(=O)c2cccc(n2)CNC(=O)C[C@@H](/C=C/CCSC(=O)CC)OC(=O)[C@H](C(C)C)NC1=O` [Compound 6], the figures for the IC50 on HDAC8 and at HDAC3 (setting [12]) were 63 nM and 61 nM, respectively. The GI50 in [1] came out at 13 nM; in assay [2], 65 nM; in [3], 33 nM; in assay [4] it was 70 nM; in [5] it was 80 nM; in [6] it was 60 nM. The GI50 in [7] was 86 nM; in assay [8] it was 61 nM; in assay [9] it was 28 nM.

For the compound `C/C=C1\NC(=O)c2ccc(F)c(n2)CNC(=O)C[C@@H](/C=C/CCSC(=O)CC)OC(=O)[C@H](C(C)C)NC1=O` [Example 47], the GI50 came to 29 nM in [1]; 43 nM in [2]; 39 nM in assay [3]; 60 nM in assay [4]; 40 nM in assay [5]; 30 nM in [10]. For the same compound, the concentration for 50% growth inhibition (GI50) stood at 80 nM in assay [6]; 43 nM in assay [7]; 20 nM in assay [11]; 81 nM in assay [8]; 61 nM in assay [9]. For the same compound, the IC50 at HDAC3 came out at 39 nM.

Consider `C/C=C1\NC(=O)c2cc(F)cc(n2)CNC(=O)C[C@@H](/C=C/CCSC(=O)CCCCCCC)OC(=O)[C@H](Cc2ccccc2)NC1=O` [Compound 70], for which the IC50 on HDAC8 is 34 nM; on HDAC3 (setting [12]), 24 nM. Further, the GI50 amounted to 62 nM in assay [1]; 52 nM in assay [3]; 50 nM in assay [4]; 50 nM in [10]; 90 nM in assay [6]; 60 nM in assay [11]. The GI50 in assay [8] came out at 93 nM; in [9], 53 nM.
